Assays:
[1] = Calcein fluorescence stability in 1685 NYC III medium and G. vaginalis supernatant; format: physicochemical; conditions: 10 μg/mL calcein, 37° C., 140 hours
Experimental: Bacteria-responsive calcein release of liposomes. Calcein's stability in different media was evaluated by measuring its fluorescence intensity that varied with time in 1685 NYC III medium and G. vaginalis supernatant, respectively. Briefly, calcein was dissolved in the medium to reach a concentration of 10 μg/mL (with 1% v/v penicillin/streptomycin) added. The solution was incubated at 37° C. and shaken at 100 rpm (avoid light). Samples were taken at different time intervals and changes of fluorescence intensity were monitored.

[2] = system: human red blood cells (RBCs); assay: Hemolytic activity assay; format: cell-based; conditions: 2% human RBCs, 30 min, 37° C.
Experimental: Hemolytic Activity Assay. For hemolytic assays, washed human red blood cells (RBCs) (Innovative Research, Novi, MI USA) were suspended in 1×PBS (pH 7.2, Wisent, Quebec City, QC Canada) to a final concentration of 2%. For sequestration studies, liposomal samples were diluted in PBS to the desired concentration and added to the erythrocytes. The hemolytic reaction was then initiated through the addition of either bacterial supernatant normalized to a 0.5 McFarland standard or recombinant S. pneumoniae serotype 2 PLY (E. coli host expression, MyBioSource, San Diego, CA USA) at the desired volume or concentration. For assays involving PLY, the toxin was preincubated with 2 mM dithiothreitol (DTT) for 1 hr at room temperature prior to the assay in order to reduce the cysteine residue present in the undecapeptide sequence and activate the protein [59]. The solution was incubated in a 1.5 ml Eppendorf microtube for 30 min at 37° C. and non-lysed RBCs were pelleted via centrifugation at 1000×g for 10 min at 4° C. The supernatant was then collected and transferred to a 96 well plate, with the extent of hemoglobin release determined via absorbance measurements at 450 nm. A control set was also included, involving a negative control of RBCs in only PBS and a positive control of RBCs in a 0.02% Triton™ X-100 solution (100% lysis). Percent lysis was determined from these readouts as per Eq (4): […]

Molecule | calcein fluorescence decrease [1] | concentration giving full lysis [2] [ng/mL]
O=C(O)CN(CC(=O)O)Cc1cc2c(cc1O)Oc1cc(O)c(CN(CC(=O)O)CC(=O)O)cc1C21OC(=O)c2ccccc21 [calcein] | 11-15% | –
pneumolysin [PLY] | – | 200

Source: patent US20260271926A1, “BACTERIA-RESPONSIVE PARTICLES, METHODS FOR PREPARATION, AND USE IN PACKAGING OR ON SURFACES” (priority 2023, published 2026)
